Reference: US20220323391A1, “COMBINATION OF A CHEMOTHERAPEUTIC AGENT AND ALPHA-LACTOGLUBULIN-OLEIC ACID COMPLEX FOR CANCER THERAPY” (HAMLET PHARMA AB, priority 2019, published 2022)
“Also recorded” adds a separate entry of the source.

Test system: MB49 mouse bladder carcinoma cells
Test: murine MB49 bladder cancer model, intravesical treatment
Assay type: in vivo
Conditions: for Tumor growth / tumor progression (bladder weight, bladder size, tumor size) compared to sham treated mice: chemotherapeutic agent alone, 25 μg intravesical, days 3, 5, 7, 9 and 11; for Tumor growth / tumor recurrence at long-term follow up: single agent (alpha1-oleate 1.7 mM, or MMC or Epirubicin 25 μg), after 4 weeks
Protocol: MB49 (RRID:CVCL_7076) cells were provided by Sara Mangsbo, Uppsala University, Sweden. […] C57BL/6 female mice were bred at the Department of Laboratory Medicine, Lund University and used at ages from 7 to 12 weeks. […] On day 0, the bladder was emptied and preconditioned by intravesical instillation of 100 μl of poly-L-lysine solution (0.1 mg/ml) through a soft polyethylene catheter (Clay Adams) with an outer diameter of 0.61 mm. After 30 minutes, MB49 mouse bladder carcinoma cells (2×10^5 cells in 50 μl media) were instilled. On days 3, 5, 7, 9 and 11, mice were randomly assigned and instilled to the alpha1-oleate (1.7 mM or 8.5 mM), chemotherapeutic drugs (MMC 25 μg, epirubicin 25 μg), combination of alpha1-oleate with chemotherapeutic agent or sham PBS treatment group. The catheter was left in place for about one minute, but as the mice remained under anesthesia, the time to voiding (dwelling time) of the substance was 2-3 hours. Groups of 5-6 mice for each treatment and control were sacrificed at day 12. Follow up groups of 5-8 mice were sacrificed at week 4 and week 8. Bladders were imaged and processed for histology or RNA extraction. Two independent experiments were performed for each condition. All experiments were performed with mycoplasma-free cells.
Bladders were embedded in O.C.T. compound (VWR), and successive 5 μm sections were collected from the center of each bladder and placed on positively-charged microscope slides (Superfrost/Plus; Thermo Fisher Scientific). […] Images was captured using the AX10 microscope (Carl Zeiss). The tumor circumferences were measured for analysis of the tumor area using ImageJ software.
The effects of alpha1-oleate and Mitomycin C were investigated in the murine MB49 bladder cancer model (for study design see FIG. 19A). Bladder cancer was established by intra-vesical instillation of MB49 cells and treatment was initiated on day 3. The treatment group received alpha1-oleate (1.7 mM or 8.5 mM), MMC (0.1 mL, 25 ug/dose) or a combination of alpha1-oleate (1.7 mM or 8.5 mM) with MMC (0.1 mL, 25 ug/dose). Instillations were performed on days 3, 5, 7, 9 and 11 and sham treated mice received PBS. Bladders were harvested at sacrifice on day 12 and tumor development was quantified as bladder weight, bladder size, tumor size and pathology score (FIG. 21c-f).

| SMILES | Therapeutic effect of Epirubicin alone relative to alpha1-oleate (Epirubicin 25 μg vs alpha1-oleate 1.7 mM, day 12, p=0.97) | Tumor growth / tumor progression (bladder weight, bladder size, tumor size) compared to sham treated mice (day 12) | Tumor growth / tumor recurrence at long-term follow up | Tumor growth / tumor progression (bladder weight, bladder size, tumor size) compared to sham treated mice (day 12, listed as MMC) | Tumor growth / tumor progression (bladder weight, bladder size, tumor size) compared to sham treated mice (day 12, listed as mitomycin) | Tumor growth / tumor recurrence at long-term follow up (listed as MMC) |
| --- | --- | --- | --- | --- | --- | --- |
| COc1cccc2c1C(=O)c1c(O)c3c(c(O)c1C2=O)C[C@@](O)(C(=O)CO)C[C@@H]3O[C@H]1C[C@H](N)[C@@H](O)[C@H](C)O1 [Epirubicin] | comparable to that of alpha1-oleate | Tumor progression was delayed; also recorded: reduction in tumor size | Evidence of tumor recurrence; also recorded: showed an increase in tumor growth |  |  |  |
| CO[C@@]12[C@H](COC(N)=O)C3=C(C(=O)C(C)=C(N)C3=O)N1C[C@@H]1N[C@@H]12 [Mitomycin C] |  | Tumor progression was delayed |  | reduction in tumor size | attenuated to a similar extent | Evidence of tumor recurrence; also recorded: showed an increase in tumor growth |
